The values below come from paper PMC6713189, “Dual and selective inhibitors of pteridine reductase 1 (PTR1) and dihydrofolate reductase-thymidylate synthase (DHFR-TS) from Leishmania chagasi” (Journal of Enzyme Inhibition and Medicinal Chemistry, 2019).

The target of experiment [1] is T1, LcPTR1 (Leishmania infantum, UniProt A4I067). Description: LcPTR1 inhibition assay (single concentration and IC50, NADPH consumption at 340 nm). The following applies: for Ki: obtained from Cheng-Prussov equation for competitive inhibitors; for Selectivity Ki LcPTR1/ Ki LcDHFR-TS: ratio of Ki values. In kind it is biochemical. The protocol: (§1) Kinetic measurements were performed according to the protocol described[32] via spectrophotometer (Shimadzu UV-1800) at pH 4.7 (20 mM sodium acetate). NADPH consumption was monitored spectrophotometrically (340 nm) at constant temperature (30 °C). The variation of the absorbance monitored for 60 s was used to calculate the initial rate of the reaction by linear regression.
T1 sequence (A4I067 entry or part of it): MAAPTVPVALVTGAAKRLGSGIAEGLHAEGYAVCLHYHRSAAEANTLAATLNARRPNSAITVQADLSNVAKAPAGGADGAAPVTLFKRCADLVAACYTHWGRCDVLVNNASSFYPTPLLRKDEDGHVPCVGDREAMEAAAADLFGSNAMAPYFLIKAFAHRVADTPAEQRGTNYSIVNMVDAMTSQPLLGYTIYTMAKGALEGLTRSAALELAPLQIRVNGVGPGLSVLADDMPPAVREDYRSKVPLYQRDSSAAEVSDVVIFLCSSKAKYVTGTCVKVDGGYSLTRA
(§2) Comparison of the enzymatic activities in the absence and presence of the compounds (50 μM), which were dissolved in DMSO (5% v/v final concentration), was employed to calculate the percent inhibition (Equation (1)) (1) % Inhibition=100 − (Vi/Vc)×100 where Vi is the initial velocity in the presence of the inhibitor and Vc is the reaction rate in the presence of DMSO (5% (v/v)).
(§3) The results of this analysis were plotted in double-reciprocal graphs for visual analysis purposes only.

Experiment [2] concerns the target T2, LcDHFR-TS (Leishmania infantum, UniProt Q8MQV3). In words: Determination of the inhibition mechanism, LcDHFR-TS. In kind it is biochemical.
Text: as §3

In experiment [3] the target is T1, LcPTR1. In words: Determination of the inhibition mechanism, LcPTR1. In kind it is biochemical.
Text: as §3

For experiment [4], the target named is T2, LcDHFR-TS. In words: LcDHFR-TS inhibition assay (single concentration and IC50, NADPH consumption at 340 nm). In kind it is biochemical. The following applies: for IC50: DHF 5.0 µM, NADPH 5.0 µM, pH 7.0, >50 from single-concentration assay; for Ki: obtained from Cheng-Prussov equation for competitive inhibitors. The protocol:
(§4) Kinetic measurements were carried out using a standard assay, at pH 7.0 (50 mM sodium phosphate). Briefly, NADPH consumption was monitored spectrophotometrically ([…]) (Shimadzu® UV-1800, Columbia MD, USA) at constant temperature (25 °C) and the absorbance variation within the first 30 s was employed to calculate the initial rate of reaction, by linear regression of the raw data.
as §2, §3

For experiment [5], the system named is DHFR-TS. The note with it: read-out: Km app for L. tropica DHFR-TS; cited from earlier work.
Experiment [6] concerns the target T2, LcDHFR-TS. Description: LcDHFR-TS apparent Km determination. It counts as biochemical, Leishmania chagasi. On the procedure:
as §4
The effect of the pH (5.0–8.0) over enzymatic activity was investigated with 0.2 μM of LcDHFR-TS and saturating NADPH and DHF concentrations (100 μM) (50 mM citrate buffer was used for pH 5.0 activity assay. 50 mM sodium phosphate buffer was used for pH range 6.0 to 8.0 activity assay). […] All the measurements were carried out in triplicate and the apparent Km values for the cofactor and substrate were determined under a pseudo first-order kinetics assumption using least-squares non-linear regression method, as available in the GraphPad Prism version 5.0 for Windows (GraphPad® Software, San Diego, CA, USA, www.graphpad.com).

For experiment [7], the system named is DHFR-TS. The note with it: read-out: Km app for L. major DHFR-TS; cited from earlier work.
Experiment [8] has as its target T1, LcPTR1. In kind it is biochemical, Leishmania chagasi. The following applies: restated without unit; read-out: Km app for LcPTR1. The protocol: as §1
The next experiment deals with L. tropica PTR1. Also noted: method as in PMID 10415124. The note with it: cited from earlier work.
In a further experiment the test system is L. tarantoleae PTR1. Also noted: method as in PMID 10415124. The following applies: read-out: Km app for L. tarantoleae PTR1; cited from earlier work.
For a further experiment, the system named is LdPTR1. More on the design: method as in PMID 21115787. The following applies: double-reciprocal plot, His-tag fused protein; read-out: Km app for LdPTR1; cited from earlier work.
The next experiment deals with L. major PTR1. The following applies: cited from earlier work.
The mark [9] stands for this setting: pH 7.0, 25 °C, other substrate saturating.
Setting [10] is: pH 7.0, 25 °C, other substrate saturating, read-out: Km app for LcDHFR-TS.
Setting [11] is: restated without unit, read-out: Km app for LcDHFR.

Where “and” joins values, the source holds several entries; their conditions need not be identical. Equal entries are not always repeated. Where two headings read alike, the source gives them in different places.

T2 sequence (Q8MQV3 entry or part of it): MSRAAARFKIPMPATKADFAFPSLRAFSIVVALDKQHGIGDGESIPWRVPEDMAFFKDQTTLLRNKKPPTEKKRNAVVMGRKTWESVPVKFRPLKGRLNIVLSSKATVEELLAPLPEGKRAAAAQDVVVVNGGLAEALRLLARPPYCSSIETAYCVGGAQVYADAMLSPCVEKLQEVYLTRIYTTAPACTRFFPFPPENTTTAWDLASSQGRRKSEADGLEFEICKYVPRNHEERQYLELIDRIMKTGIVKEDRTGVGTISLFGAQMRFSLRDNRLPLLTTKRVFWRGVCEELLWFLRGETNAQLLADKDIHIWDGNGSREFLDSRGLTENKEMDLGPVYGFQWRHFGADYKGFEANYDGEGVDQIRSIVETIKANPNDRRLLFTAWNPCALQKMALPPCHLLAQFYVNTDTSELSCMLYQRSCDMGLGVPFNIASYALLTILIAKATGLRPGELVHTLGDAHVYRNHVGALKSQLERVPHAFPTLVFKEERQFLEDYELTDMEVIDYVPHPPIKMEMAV

For orientation: IC50 means the midpoint of a concentration-inhibition curve. Read a high IC50 as weaker potency. In general, Ki refers to the dissociation constant of the complex between target and ligand, obtained from inhibition or displacement. Low values mean higher affinity, high ones lower affinity. The term inhibition denotes how much of the control response was suppressed. On to `Nc1nc(N)c(Cc2ccccc2)c(CCCc2ccccc2)n1` [Compound 1], for which the 50% inhibitory concentration (IC50) against LcPTR1 [1] stood at 3000 nM; on LcDHFR-TS [4], 1650 nM. Besides, the inhibitory constant (Ki) was determined as 1500 nM at LcPTR1 [1] and 280 nM on LcDHFR-TS [4]. Also, the inhibition at 50 µM against LcPTR1 [1] (pH 4.7) was 90 ± 1%; at LcDHFR-TS [4] (pH 7), 100 ± 1.17%. For the same compound, the “Selectivity Ki LcPTR1/ Ki LcDHFR-TS” value on LcPTR1 [1] was 5.4 and 5.45. Besides, the “NADPH Vmax app in presence of inhibitor” value at LcDHFR-TS [2] (compound 1 at 2 µM) was 1.0 ± 0.1 nmol/min/mL; at LcDHFR-TS [2] (compound 1 at 5 µM) it was 0.5 ± 0.05 nmol/min/mL. Moreover, the “DHF Vmax app in presence of inhibitor” value at LcDHFR-TS [2] (not affected by increasing concentrations of compound 1) worked out at 1.9 ± 0.1 nmol/min/mL. On LcDHFR-TS [2] (saturating DHF 12.5 µM, varying NADPH), the “mechanism of inhibition related to cofactor NADPH” value was “noncompetitive”. Also, the “mechanism of inhibition related to substrate DHF” value at LcDHFR-TS [2] (saturating NADPH 50 µM, varying DHF) is given as “competitive”. Besides, on LcPTR1 [3], the “mechanism of inhibition with respect to biopterin” value is listed as “competitive”. The “mechanism of inhibition with respect to the cofactor NADPH” value at LcPTR1 [3] is “uncompetitive”.

On to `Nc1nc(N)c(Cc2ccccc2)c(CC2CCCCC2)n1` [Compound 2], for which the IC50 on LcPTR1 [1] was determined as 4100 nM; on LcDHFR-TS [4], 18000 nM. In addition, the values for the Ki on LcPTR1 [1] and on LcDHFR-TS [4] were 2050 nM and 3000 nM, respectively. The inhibition at 50 µM at LcPTR1 [1] (pH 4.7) was 40 ± 1%; against LcDHFR-TS [4] (pH 7), 20 ± 2.4%. In addition, on LcPTR1 [1], the “Selectivity Ki LcPTR1/ Ki LcDHFR-TS” value amounted to 0.68.

With `COc1ccccc1CCc1nc(N)nc(N)c1Cc1ccccc1` [Compound 3], on LcPTR1 [1], the IC50 is 4600 nM; the Ki amounted to 2300 nM; the “Selectivity Ki LcPTR1/ Ki LcDHFR-TS” value is 3.3 and 3.29. Also, the LcPTR1 inhibition entry on LcPTR1 [1] (pH 4.7) is recorded as “active”. Besides, at LcDHFR-TS [4], 4200 nM corresponded to half-maximal inhibition (IC50) and the affinity, expressed as Ki, was 700 nM. For the same compound, the LcDHFR-TS inhibition entry at LcDHFR-TS [4] (pH 7) is “active”.

In the case of `CC(C)Cc1ccc(C(C)c2nc(N)nc(N)c2-c2ccccc2)cc1` (centres unmarked) [Compound 4], the half-inhibitory concentration (IC50) at LcPTR1 [1] is 66300 ± 9010 nM. Further, the inhibition at 50 µM was 40 ± 1% on LcPTR1 [1] (pH 4.7) and 20 ± 2.4% at LcDHFR-TS [4] (pH 7).

At LcPTR1 [1], `Nc1nc(N)c2ccccc2n1` [Compound 5] yielded a concentration for half-maximal inhibition (IC50) of 940 nM and a Ki of 470 nM. Further, the inhibition at 50 µM at LcPTR1 [1] (pH 4.7) is 98 ± 0.8%. The selectivity index on LcPTR1 [1] (selective LcPTR1 inhibitor, LcPTR1 over LcDHFR-TS (abstract)) is reported as 20. Moreover, at LcPTR1 [3], the “mechanism of inhibition with respect to biopterin” value was “competitive” and the “mechanism of inhibition with respect to the cofactor NADPH” value is listed as “uncompetitive”. In addition, at LcDHFR-TS [4], the IC50 was above 50000 nM and the Ki was above 8330 nM. The compound also showed an inhibition at 50 µM on LcDHFR-TS [4] (pH 7) of 20 ± 2.4%.

As usually defined, the Km is the substrate concentration at which the rate is half of its maximum. Turning to `Nc1nc(=O)c2c([nH]1)NCC(CNc1ccc(C(=O)N[C@@H](CCC(=O)O)C(=O)O)cc1)=N2` [DHF], the Michaelis constant (Km) in the experiment with DHFR-TS [5] is 1.5 µM; on LcDHFR-TS [6] (setting [10]) it was 1 ± 0.2 µM; at LcDHFR-TS [6] (setting [11]), 1 µM; in the experiment with DHFR-TS [7], 1.6 µM. Also, at LcDHFR-TS [6] (setting [9]), the “Vmax app for LcDHFR-TS” value turned out to be 2.0 ± 0.11 nmol/min/mL.

As for `NC(=O)C1=CN([C@@H]2O[C@H](COP(=O)(O)OP(=O)(O)OC[C@H]3O[C@@H](n4cnc5c(N)ncnc54)[C@H](OP(=O)(O)O)[C@@H]3O)[C@@H](O)[C@H]2O)C=CC1` [NADPH], the Michaelis constant (Km) at LcPTR1 [8] was 37.5 µM; with L. tropica PTR1, 19 µM; in the experiment with DHFR-TS [5], 2.7 µM; with L. tarantoleae PTR1 it was 19 µM; in the experiment on LdPTR1, 18.5 µM; in the experiment on L. major PTR1 it was 6.7 µM. Moreover, the Km at LcDHFR-TS [6] (setting [10]) is 2.3 ± 0.5 µM; at LcDHFR-TS [6] (setting [11]), 2.3 µM; in the experiment on DHFR-TS [7], 0.45 µM. The “Vmax app for LcDHFR-TS” value at LcDHFR-TS [6] (setting [9]) came to 1.6 ± 0.1 nmol/min/mL.

Turning to biopterin, the Michaelis-Menten constant (Km) in the experiment on L. tropica PTR1 was 3.5 µM; in the experiment with L. tarantoleae PTR1, 3.5 µM; in the experiment on LdPTR1, 5.8 µM; in the experiment on L. major PTR1 it was 4.6 µM.
